Assay results reported in US20200355685A1, “REAGENT SET FOR DETECTING INTERACTIONS BETWEEN BIOMOLECULES AND THEIR REGULATORY FACTORS, AND APPLICATIONS” (TSINGHUA UNIVERSITY, priority 2017, published 2020).
No end group written: not given here. Me3 = trimethyl (trimethylated lysine)

Assays:
[1] = molecular target: T1, interaction between P53 and MDM2 (Homo sapiens, UniProt Q00987); assay: Intracellular detection of the P53-MDM2 interaction in HEK293 cells co-transfected with GFP-NUPN-P53 and mCherry-MDM2; format: cell-based; conditions: system 8, final concentration of 5 μM, same field before and after treatment
Experimental: Each recombinant vector obtained in step I was transfected (or co-transfected) into HEK293 cells (adherent culture) according to the following combinations, and the transfection reagent Hifectin I (Beijing Dinoao Biotechnology Co., Ltd.) was used, and the operation was performed according to the instruction of the reagent. The combinations and the amount of the transfection vector(s) per 105 HEK293 cells were as follows:
combination 1: pcDNA3.1-GFP-NUPN, the transfection dosage of the vector was 1 μg; combination 2: pcDNA3.1-mCherry, the transfection dosage of the vector was 1 μg; combination 3: pcDNA3.1-GFP-NUPN+pcDNA3.1-mCherry, the transfection dosages of these two vectors were 0.5 μg and 0.5 μg, respectively; combination 4: pcDNA3.1-GFP-NUPN-P53, the transfection dosage of the vector was 1 μg; combination 5: pcDNA3.1-GFP-NUPN-P53+pcDNA3.1-mCherry, the transfection dosages of these two vectors were 0.5 μg and 0.5 μg, respectively; combination 6: pcDNA3.1-mCherry-MDM2, the transfection dosage of the vector was 1 μg; combination 7: pcDNA3.1-GFP-NUPN+pcDNA3.1-mCherry-MDM2, the transfection dosages of these two vectors were 0.5 μg and 0.5 μg, respectively; combination 8: pcDNA3.1-GFP-NUPN-P53+pcDNA3.1-mCherry-MDM2, the transfection dosages of these two vectors were 0.5 μg and 0.5 μg, respectively. […]

[2] = molecular target: T1, interaction between P53 and MDM2; assay: Phase transition droplet detection of the effect of a regulatory factor on the P53-MDM2 interaction (SGS-P53, mCherry-MDM2, His-SGP); format: binding; set-up: His-tag (N); made in house; host or cells: E. coli BL21 (DE3); conditions: MI-773 1.25-25 μM, ampicillin 25 μM; SGS-P53, mCherry-MDM2 and His-SGP all 0.5 μM; static incubation at 4° C.
Experimental: the solutions of SGS-P53, mCherry-MDM2, His-SGP and ampicillin were mixed, and then 20 μL of the resulting mixture was transferred to a 384-microwell plate to obtain an ampicillin control system and the concentrations of SGS-P53, mCherry-MDM2 and His-SGP were all 0.5 μM in the ampicillin control system, and the concentration of ampicillin was 25 μM;
According to the above system, the solutions of SGS-P53, mCherry-MDM2, His-SGP and MI-773 were mixed, and then 20 μL of the resulting mixture was transferred into a 384-microwell plate. Different concentrations of MI-773 were set to obtain experimental systems with different concentrations of MI-773. The concentration of MI-773 in each experimental system was 0 (i.e., KMEI buffer), 1.25, 2.5, 5, 10, 15, and 25 μM, respectively, one concentration per well, and in each experimental system, the concentrations of SGS-P53, mCherry-MDM2 and His-SGP were all 0.5 μM.
Each of the above systems was subjected to static incubation at 4° C. until the phase transition droplets in the systems in which phase transitions occurred completely settled to the bottom of the well plate, and the image of each system was collected using a confocal high-content imaging microscope and the intensity of the red fluorescence signal in the phase transition droplets in each well plate was counted and analyzed.

[3] = molecular target: T2, interaction between FKBP and FRB (Homo sapiens, UniProt P42345+P62942); assay: Phase transition droplet detection of the effect of a regulatory factor on the FKBP-FRB interaction (SGS-FKBP, mCherry-FRB, His-SGP); format: binding; conditions: rapamycin 0.2-1.0 μM, ampicillin control, mCherry-FRB and His-SGP all 1 μM, static incubation at 4° C.
T2 construct: His-SGS (His-tag, SmF, GFP, SH3 and linking regions); His-tag (N); made in house; host or cells: E. coli BL21 (DE3)
Description: Different concentrations of rapamycin were set to obtain experimental systems with different concentrations of rapamycin.

CD = molecular target: T3, CD (Homo sapiens, UniProt P83916); assay: Phase transition droplet detection of the interaction between H3K9me3 and CD (SGS-CD, His-SGP, Hfq-mCherry-PDZ); format: binding; conditions: systems 15-20 with Hfq-mCherry-PDZ; mixture completely composed of the named peptide; all components 1 μM
T3 construct: His-SGS (His-tag, SmF, GFP, SH3 and linking regions); made in house; host or cells: E. coli BL21 (DE3)
Experimental: The concentrations of His-SGS, SGS-CD, His-SGP, Hfq-mCherry-PDZ, mCherry-PDZ and the mixture of H3K9me3-KKETPV and H3K9-KKETPV in the corresponding systems were all 1 μM:
In Table 2, “+” represents that the substance is contained; “−” represents that the substance is not contained; “*” represents a mixture of H3K9me3-KKETPV and H3K9-KKETPV. In the systems 9-14, the molar percentages of H3K9me3-KKETPV in the mixture of H3K9me3-KKETPV and H3K9-KKETPV were 0, 0.2, 0.4, 0.6, 0.8 and 1.0, respectively, and in the systems 15-20, the molar percentages of H3K9me3-KKETPV in the mixture of H3K9me3-KKETPV and H3K9-KKETPV were 0, 0.2, 0.4, 0.6, 0.8 and 1.0, respectively.
Each of the above systems was subjected to a static incubation at 4° C. until the phase transition droplets in the systems in which phase transitions occurred completely settled to the bottom of the well plate, and the images were collected using a confocal high-content imaging microscope.

T1 sequence (Q00987 with tags, fused parts or gaps): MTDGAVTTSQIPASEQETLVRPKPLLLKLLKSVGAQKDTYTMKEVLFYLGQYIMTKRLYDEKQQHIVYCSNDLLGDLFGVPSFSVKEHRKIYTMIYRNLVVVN
T3 sequence (P83916 19-83): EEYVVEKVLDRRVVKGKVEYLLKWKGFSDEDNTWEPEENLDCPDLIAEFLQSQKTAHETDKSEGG
T2 sequence (P62942 with tags, fused parts or gaps): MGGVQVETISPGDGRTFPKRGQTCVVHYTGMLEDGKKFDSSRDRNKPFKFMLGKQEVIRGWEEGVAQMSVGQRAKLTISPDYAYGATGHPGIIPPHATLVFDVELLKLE
T2 sequence (P42345 with tags, fused parts or gaps): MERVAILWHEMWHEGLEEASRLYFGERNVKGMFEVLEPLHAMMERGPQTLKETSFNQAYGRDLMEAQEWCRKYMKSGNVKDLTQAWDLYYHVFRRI

Compound	effect on the interaction between P53 and MDM2 in cells (accumulation of red fluorescent signal in the second phase) [1]	effect on the interaction between P53 and MDM2 (red fluorescence signal in the phase transition droplets) [2]	effect on the interaction between FRB and FKBP (red fluorescence signal in the phase transition droplets) [3]	red fluorescence signal (mCherry) in the phase transition droplets (CD)
CN[C@@H](C)C(=O)N[C@H](C(=O)N1CCC[C@H]1C(=O)Nc1snnc1-c1ccccc1)C1CCCCC1 [GDC0152]	does not affect	–	–	–
CC(C)(C)C[C@@H]1N[C@@H](C(=O)N[C@H]2CC[C@H](O)CC2)[C@H](c2cccc(Cl)c2F)[C@]12C(=O)Nc1cc(Cl)ccc12 [MI-773]	significantly inhibit	significantly inhibit	–	–
CC1(C)S[C@@H]2[C@H](NC(=O)[C@H](N)c3ccccc3)C(=O)N2[C@H]1C(=O)O [ampicillin]	–	does not affect	does not affect	–
ARTK (Me) 3QTARGGSGGSGGSWGGSKKETPVAV (ARTK(Me3)QTARGGSGGSGGSWGGSKKETPVAV) [H3K9me3-KKETPV]	–	–	–	reached the highest
H3K9-KKETPV: unmethylated peptide as shown in SEQ ID NO: 23, used as a control (ARTKQTARGGSGGSGGSWGGSKKETPVAV)	–	–	–	no significant red fluorescence
